Laboratory results: US20250179045A1, “LPAR1 ANTAGONISTS AND USES THEREOF” (Contineum Therapeutics, Inc., priority 2021, published 2025)

Target: human LPA1 (Homo sapiens, UniProt Q92633)
Assay: In vitro functional assay of lysophosphatidic acid receptor 1 activity (calcium flux)
Assay type: cell-based
Details: B103 cells stably expressing human LPA1; Fluo-4 NW calcium flux after lysophosphatidic acid (18:1) at EC80; compounds 100 pM to 10 μM; read-out: LPA1 IC50
In short: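 B103 cells stably expressing human LPA1 plated onto compound for 24 h at 37 °C, loaded with Fluo-4 NW dye, re-exposed to compound (30 min 37 °C plus 30 min room temp).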

human LPA1, sequence (Q92633 whole entry): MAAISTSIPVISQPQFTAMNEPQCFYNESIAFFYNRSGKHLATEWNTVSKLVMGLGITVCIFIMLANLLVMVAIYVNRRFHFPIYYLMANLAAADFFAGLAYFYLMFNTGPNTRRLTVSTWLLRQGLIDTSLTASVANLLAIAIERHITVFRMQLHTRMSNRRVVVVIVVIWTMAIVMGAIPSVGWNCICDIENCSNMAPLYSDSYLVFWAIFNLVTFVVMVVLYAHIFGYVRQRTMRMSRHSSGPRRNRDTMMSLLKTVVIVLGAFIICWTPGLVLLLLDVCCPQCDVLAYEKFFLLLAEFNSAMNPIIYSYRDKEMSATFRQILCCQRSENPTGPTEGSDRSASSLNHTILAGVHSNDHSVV

SMILES | IC50
COc1cc(Br)cnc1NC(=O)C1(c2ccccc2C(C)C)COC1 [Example 23, N-(5-bromo-3-methoxypyridin-2-yl)-3-(2-isopropylphenyl)oxetane-3-carboxamide] | 100 to 1000 nM
CC(C)c1ccccc1C1(C(=O)Nc2ncc(Cl)cc2OC(F)F)CC(O)(C(F)(F)C(=O)O)C1 (single isomer, unassigned) [Example 55-isomer A, 2-(3-((5-chloro-3-(difluoromethoxy)pyridin-2-yl)carbamoyl)-1-hydroxy-3-(2-isopropylphenyl)cyclobutyl)-2,2-difluoroacetic acid] | 10 to 100 nM
COc1ccc(NC(=O)[C@]2(c3ccccc3C(C)C)C[C@@H](Cc3nnn[nH]3)C2)c(OC(F)F)n1 [Example 120, trans-3-((1H-tetrazol-5-yl)methyl)-N-(2-(difluoromethoxy)-6-methoxypyridin-3-yl)-1-(2-isopropylphenyl)cyclobutane-1-carboxamide] | < 10 nM
Cc1ccc(NC(=O)C2(c3ccccc3C(C)C)CC(C(=O)N(C)C)C2)c(OC(F)F)n1 (stereo not drawn) [Example 66, N^1-(2-(difluoromethoxy)-6-methylpyridin-3-yl)-1-(2-isopropylphenyl)-N^3,N^3-dimethylcyclobutane-1,3-dicarboxamide] | 100 to 1000 nM
CC(C)c1ccccc1C1(C(=O)Nc2cnc(C(F)F)cc2OC(F)F)CC(=O)N(C)C1 (stereo not drawn) [Example 4, N-(4-(difluoromethoxy)-6-(difluoromethyl)pyridin-3-yl)-3-(2-isopropylphenyl)-1-methyl-5-oxopyrrolidine-3-carboxamide] | 100 to 1000 nM
Cc1ccc(NC(=O)C2(c3ccccc3C(C)C)CC(CS(C)(=O)=O)C2)c(OC(F)F)n1 (stereo not drawn) [Example 64, N-(2-(difluoromethoxy)-6-methylpyridin-3-yl)-1-(2-isopropylphenyl)-3-((methylsulfonyl)methyl)cyclobutane-1-carboxamide] | 100 to 1000 nM
CC(C)c1ccccc1C1(C(=O)Nc2ccc(F)cc2OC(F)F)CC(=O)N(C)C1 (stereo not drawn) [Example 88, N-(2-(difluoromethoxy)-4-fluorophenyl)-3-(2-isopropylphenyl)-1-methyl-5-oxopyrrolidine-3-carboxamide] | 100 to 1000 nM
COc1cc(Cl)cnc1NC(=O)C1(c2ccccc2C(C)C)COC1 [Example 20, N-(5-chloro-3-methoxypyridin-2-yl)-3-(2-isopropylphenyl)oxetane-3-carboxamide] | > 1000 nM
Cc1ccc(NC(=O)C2(c3ncccc3C(C)C)CC(O)C2)c(OC(F)F)n1 (mixture of isomers) [Example 57, N-(2-(difluoromethoxy)-6-methylpyridin-3-yl)-3-hydroxy-1-(3-isopropylpyridin-2-yl)cyclobutane-1-carboxamide] | 10 to 100 nM
Cc1ccc(NC(=O)C2(c3ccccc3C(C)C)CC(N3CCC3)C2)c(OC(F)F)n1 (stereo not drawn) [Example 41, 3-(azetidin-1-yl)-N-(2-(difluoromethoxy)-6-methylpyridin-3-yl)-1-(2-isopropylphenyl)cyclobutane-1-carboxamide] | > 1000 nM

Next, values leading:

IC50 | SMILES
10 to 100 nM | COc1ccc(NC(=O)C2(c3ccccc3C(C)C)CC(CC#N)C2)c(OC(F)F)n1 (stereo not drawn) [Example 111, 3-(cyanomethyl)-N-(2-(difluoromethoxy)-6-methoxypyridin-3-yl)-1-(2-isopropylphenyl)cyclobutane-1-carboxamide]
100 to 1000 nM | COc1cnc(NC(=O)C2(c3ccccc3C(C)C)COC2)c(OC(F)F)c1 [Example 35, N-(3-(difluoromethoxy)-5-methoxypyridin-2-yl)-3-(2-isopropylphenyl)oxetane-3-carboxamide]
10 to 100 nM | COc1cc(Br)ccc1NC(=O)C1(c2ccccc2C(C)C)CNC(=O)C1 (stereo not drawn) [Example 104, N-(4-bromo-2-methoxyphenyl)-3-(2-isopropylphenyl)-5-oxopyrrolidine-3-carboxamide]
100 to 1000 nM | Cc1cc(OC(F)F)c(NC(=O)C2(c3ccccc3C(C)C)CC(O)(C(F)(F)C(=O)O)C2)cn1 (single isomer, unassigned) [Example 94-isomer A, 2-(3-((4-(difluoromethoxy)-6-methylpyridin-3-yl)carbamoyl)-1-hydroxy-3-(2-isopropylphenyl)cyclobutyl)-2,2-difluoroacetic acid]
100 to 1000 nM | Cc1ccc(NC(=O)C2(c3ccccc3C(C)C)CC(F)C2)c(OC(F)F)n1 (stereo not drawn) [Example 62, N-(2-(difluoromethoxy)-6-methylpyridin-3-yl)-3-fluoro-1-(2-isopropylphenyl)cyclobutane-1-carboxamide]
